The test system of series [1] is CHO K1 cells. The experiment in a line: Protection from staurosporine-induced apoptosis (Hoechst nuclear staining). The class given is cell-based, Chinese hamster. The conditions noted are these: VPTLK 3 h pre-incubation, 100 nM STS for 3 and 6 h, Hoechst dye nuclear staining, triplicate samples. As for the experimental part:
(§1) Figure 3 Protection of cells from apoptosis by VPTLK. a-d. Proteoglycan is not required for VPTLK cell entry. Microscopic analysis of cell entry of Fam-VPTLK in Chinese Hamster Ovary (CHO) A745 cells lacking proteoglycans in the plasma membrane (a) and CHO K1 cells that express proteoglycans (b). CHO A745 and K1 cells were incubated with Fam-VPTLK (200 μM) for 3 h at 37 °C. […] Apoptosis was determined by using Hoechst dye nuclear staining. Each bar represents the mean of triplicate samples and standard error, and statistical significance was determined by an unpaired student t test; “ns”: not significant, *P < 0.05, and **P < 0.01. e. […] Jurkat cells were pre-incubated with VPTLK 200 μM for 3 h prior to STS treatment (100 nM, 3 or 6 h). Apoptosis was determined by Hoechst dye nuclear staining. Each bar represents the mean of triplicate samples and standard error, and statistical significance was determined by an unpaired student t test: **P < 0.01. f. […] Apoptosis was determined by Hoechst dye nuclear staining. […]
(§2) To induce Bax-mediated apoptosis in HeLa cells, cells were transfected with pEGFP-Bax (1 µg) and apoptosis was determined 24 h after the transfection. […] To detect apoptosis, cells were stained with Hoechst 33258 dye, and the numbers of cells with apoptotic nuclei were counted using fluorescence microscopy. Three-hundred cells were analyzed in triplicate samples. […]

Series [2] deals with CHO A745 cells. The series is described as above. Conditions: VPTLK 3 h pre-incubation, 100 nM STS for 3 and 6 h, Hoechst dye nuclear staining, triplicate samples. The class given is cell-based, Chinese hamster. As for the experimental part: as §1, §2
Series [3] deals with T1, Bax (Homo sapiens, UniProt Q07812).
T1 construct: expressed in transfected cells; host or cells: HeLa cells
The experiment in a line: Inhibition of Bax-induced apoptosis after pEGFP-Bax transfection. The class given is cell-based. Conditions: 200 μM peptide 3 h before pEGFP-Bax plasmid transfection, apoptosis assayed 24 h after transfection, triplicate samples, P < 0.01. As for the experimental part:
as §1, §2

Series [4] has as its system Jurkat cells. The experiment in a line: Protection from staurosporine-induced apoptosis (Hoechst nuclear staining). The class given is cell-based. Conditions: 200 μM peptide 3 h pre-incubation, STS 100 nM, 3 or 6 h, Hoechst dye nuclear staining, triplicate samples, P < 0.01. As for the experimental part: as §1, §2
Series [5] concerns Primary cultured mouse embryonic fibroblast (MEF) cells. The experiment in a line: Cytotoxicity (apoptosis, Hoechst nuclear staining) of CPP5 and TAT. The class given is cell-based. As for the experimental part:
List of cell-penetrating penta-peptides (CPP5s). […] Peptide sequences are color-coded to show the constant amphipathic amino acid arrangement in each CPP5. […] Fam was labeled on the N-terminus of all peptides examined. Cells were analyzed by FACS and/or microscopy. The activity of each peptide is shown as a percentage of the activity of KLPVM. Each value represents the mean of triplicate samples. Cell entry of some peptides was confirmed by microscopy only, and these peptides are indicated with a '+' without a percentage value. For cytoprotective activity (right column), the information is based on previous studies and the activity was determined by the protection of cells from Bax overexpression and other apoptotic stimuli such as etoposide treatment. b to e. Cell entry of Fam-labeled […], and poly-arginine (R8). […] Comparison of the cytotoxicity of CPP5 and TAT. Primary cultured mouse embryonic fibroblast (MEF) cells were treated with various concentrations of peptides for 24 h as indicated. Then, apoptosis was analyzed as described in Experimental Procedures. Each bar represents the mean of triplicate samples and standard error.

Series [6] deals with HeLa cells. The experiment in a line: Protection from etoposide-induced apoptosis (Hoechst nuclear staining). The class given is cell-based. The conditions noted are these: 200 μM peptide 3 h pretreatment, etoposide 10 μM, 24 h, Hoechst dye nuclear staining, triplicate samples, P < 0.01. As for the experimental part: as §1, §2

The text below walks through data of paper PMC3045100, “Cell-Penetrating Penta-Peptides (CPP5s): Measurement of Cell Entry and Protein-Transduction Activity” (Pharmaceuticals, 2010).

T1 sequence (Q07812 whole entry, species assumed): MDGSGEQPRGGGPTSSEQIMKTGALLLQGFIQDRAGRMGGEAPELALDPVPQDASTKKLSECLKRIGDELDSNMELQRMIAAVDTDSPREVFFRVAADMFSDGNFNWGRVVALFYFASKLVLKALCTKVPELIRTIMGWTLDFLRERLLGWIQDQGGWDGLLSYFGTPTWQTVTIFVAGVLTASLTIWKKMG

As for VPTLK, the “Protection from staurosporine treatment, CHO K1” value in series [1] was “protected both cell lines”. For the same substance, the “Protection from staurosporine treatment, CHO A745” value in series [2] is “protected both cell lines”. In addition, the “Inhibition of Bax-induced apoptosis, HeLa” value in series [3] is on record as “inhibited Bax-induced apoptosis in HeLa cells”. Besides, the “Protection from STS-induced apoptosis, Jurkat” value in series [4] is listed as “protected Jurkat cells from STS-induced apoptosis”. The “Cytotoxic effect at 1.6 mM in the cell culture medium” value in series [5] is given as “did not show significant cytotoxic effects”. For the same substance, the “Protection from etoposide-induced apoptosis, HeLa” value in series [6] was “protected HeLa cells from etoposide-induced apoptosis”.
